Here are results for one sequence from PMC12998938, “Neutrophil store-operated Ca^2+ entry: A correctable biomarker of cystic fibrosis lung disease progression” (Journal of cystic fibrosis : official journal of the …, 2025).

The test system of series [1] is neutrophil elastase. To be noted: cited from earlier work.
Series [2] concerns non-CF neutrophils. Nature of the series: Neutrophil degranulation multiplex assay, non-CF neutrophils. It counts as cell-based, human. To be noted: 3 h, 1 μM thapsigargin 30 min, vs vehicle, paired t-test. How it is done:
Neutrophils were immediately isolated by negative selection from deidentified blood samples using an EasySep human neutrophil isolation kit (Stem Cell Technologies) as described. Cytosolic Ca^2+ was measured using Fluo-4 as described. Protein lysate from isolated blood neutrophils was characterized by liquid chromatography with tandem mass spectrometry (LC-MS/MS) as described. Degranulation products in media were quantified by Luminex assay using a custom Bio-Plex human kit (BioRad) per the manufacturer’s protocol […]. Detailed methods for all experiments and measurements are provided in an online data supplement.
Multiple neutrophil functions, including neutrophil degranulation, are Ca^2+ dependent. Neutrophil degranulation results in an increase in several proteases in the lung, including neutrophil elastase, a key driver of CF lung damage. Accordingly, we investigated the impact of ELD607 on neutrophil degranulation as a marker of Ca^2+-dependent neutrophilic function. We used a multiplex assay to quantify key granule proteins released into media after a 3 h pretreatment with 10 μM ELD607 or vehicle control followed by a 30 min stimulation with 1 μM thapsigargin. Levels of myeloperoxidase (MPO; primary granules), lactoferrin (specific granules) and matrix metalloproteinase-9 (MMP9; tertiary granules) release were similar between non-CF and CF neutrophils (Fig. 4A–C).
Fig. 4. ELD607 inhibits degranulation in non-CF and CF neutrophils. Neutrophil degranulation (A-C) was assayed by measuring the concentration of representative constituents of (A) primary granules, MPO (non-CF, n = 9; CF, n = 13); (B) secondary granules, lactoferrin (non-CF, n = 12; CF, n = 17) and (C) tertiary granules, MMP-9 (non-CF, n = 9; CF, n = 12). […]
Multiplex assay. […] Supernatant was collected and analyzed for a panel of neutrophil granule proteins (MPO, lactoferrin, MMP9) using a Bio-Plex human kit (BioRad) per the manufacturer’s protocol. Plates were then analyzed using a Bio-Plex MAGPIX System (BioRad).

Series [3] deals with bacterial lung infections in mice. To be noted: cited from earlier work. An excerpt:
In ... || CF neutrophils with elevated SOCE undergo more degranulation, leading to greater release of proteases/pro-inflammatory mediators. Therefore, increased SOCE may be a driving force for declining CF lung function. However, there is much to do to fully understand this phenomenon, and our data identify an association, not a causality. […] To date, several blood biomarkers have been identified as predictors of CF lung disease. Most biomarkers ( ...

The subject of series [4] is Ca2+ influx in CF neutrophils. Description: Fluo-4 Ca2+ influx across the plasma membrane, CF neutrophils. The format is cell-based, human. On the procedure: (§1) Isolated neutrophils were incubated with peptide or vehicle control for 3 h. For the final hour of treatment, cells were loaded with Fluo-4 direct (Thermofisher) for 45 min at 37°C and 15 min at room temperature as described.
(§2) Fig. 3. ELD607 inhibits SOCE in non-CF and CF neutrophils. (A) and (B) Mean changes in fluo-4 fluorescence as a marker of cytoplasmic Ca^2+ levels in non-CF and CF neutrophils respectively before and after stimulation with 1 μM thapsigargin (Tg). Before stimulation, neutrophils were exposed to vehicle (0.1% DMSO in PBS), 10 μM ELD607 or scrambled peptide (control) for 3 h. N = 10 non-CF and 21 CF donors. Stats show ELD607 vs vehicle or scrambled peptide based on color. (C-F) Isolation of ER Ca^2+ release vs Ca^2+ influx across the plasma membrane in non-CF and CF Neutrophils. Neutrophils were stimulated with thapsigargin (1 μM) in the absence of extracellular Ca^2+ to allow the release of Ca^2+ stores to be measured. Extracellular Ca^2+ was then returned so that extracellular Ca^2+ influx could be measured. (C) Mean fold change in Fluo-4 fluorescence during ER store release in non-CF and CF neutrophils. […] (E) Mean fold change in fluo-4 fluorescence during Ca^2+ influx in non-CF and CF neutrophils. […]
SOCE has 2 phases: release of Ca^2+ from ER stores and Ca^2+ influx from the extracellular space via Ca^2+ channels such as Orai1. […] Once the stores had emptied, extracellular Ca^2+ was reintroduced and Ca^2+ influx was measured (Fig. 3C–F).
Fluo-4 Ca^2+ assays. […] For global Ca^2+ measurements, baseline fluorescent readings were made for 2 min (1 read every 30 s) using a Tecan Infinite M1000 plate reader (ex 494 em 516 nm, bandwidth 5 nm) before thapsigargin (Sigma-Aldrich) was added and the change in emission was recorded for 10 min (1 read every 30 s). […] Baseline fluo-4 fluorescence was read for 2 min before cell were stimulated with thapsigargin (Tocris). Reads continued for ~5 min before 1.2 mM Ca^2+ was added to the extracellular solution and SOCE was measured for ~10 mins. For analysis, all fluo-4 fluorescence reads are normalized to baseline.

Series [5] concerns ER Ca2+ store release in non-CF neutrophils. Nature of the series: Fluo-4 ER Ca2+ release, non-CF neutrophils. To be noted: 3 h pre-treatment, 1 μM thapsigargin, no extracellular Ca2+, 2 donors in triplicate. It counts as cell-based, human. How it is done: as §1
as §2, with “(C-F) Isolation of ER Ca^2+ release vs Ca^2+ influx across the plasma membrane in non-CF and CF Neutrophils.” left out
SOCE has 2 phases: release of Ca^2+ from ER stores and Ca^2+ influx from the extracellular space via Ca^2+ channels such as Orai1. […] Once the stores had emptied, extracellular Ca^2+ was reintroduced and Ca^2+ influx was measured (Fig. 3C–F). […]

Where [6] appears, read: murine models of bacterial lung infections, ref [21].

As usually defined, the IC50 is the concentration that inhibits the measured activity by half. For “VHDIVNMLIRG [ELD607, size-optimized SPLUNC1/α6 peptidomimetic]”, the “stability in neutrophil elastase” value in series [1] was “protease-resistant and stable in CF patient-derived neutrophil elastase”. Moreover, in series [2] (n = 9, 10 μM), the “MMP9 release (tertiary granules)” value is recorded as “significantly reduced” and the “MPO release (primary granules)” value is reported as “significantly reduced”. In series [2] (n = 12, 10 μM), the “lactoferrin release (specific/secondary granules)” value is on record as “significantly reduced”. For the same sequence, in series [3] (inhaled ELD607, ref [53]), the “neutrophilia caused by bacterial infections” value was “abolished neutrophilia”. Moreover, in series [3] (setting [6]), the “neutrophilia and lung damage” value is “reduced neutrophilia and lung damage”; the survival entry is reported as “increased survival”. Further, the “beneficial effects after depletion of alveolar macrophages” value in series [3] (wild-type mice, alveolar macrophages depleted, ref [21]) is “abolished the beneficial effects of ELD607”. Also, in series [4] (CF neutrophils, absolute terms), the “Ca2+ influx relative to non-CF levels” value was “restored Ca^2+ from influx CF neutrophils to non-CF levels”. For the same sequence, the IC50 in series [4] (CF, 3 h pre-treatment, 1 μM thapsigargin, extracellular Ca2+ (1.2 mM) returned, 3 donors in triplicate, vs non-CF p<0.0001) stood at 493 nM. The “inhibition of ER Ca2+ release” value in series [5] is given as “little effect”.
